Among the test systems are HOP-92 NSCLC; M14 melanoma; MOLT-4 leukemia; NCI-H226 lung; NCI-H460 lung; RPMI-8226 leukemia; SF-268 CNS; SF-295 CNS; SF-539 CNS; SK-OV-3 ovarian.
What all share (experiment): NCI anticancer screen, dose series, 48 h

Structures are written as SMILES. Values joined by “and” are separate entries in the source; they are usually repeats but may differ in a detail not shown here. Equal values may be shown once.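 Where inhibition never reached the appropriate level, the endpoint shown equals the highest concentration tested. Otherwise, values were interpolated linearly from a five-concentration, 48-hour dose response in 96-well plates. GI50 is the concentration that inhibits growth by half. TGI marks complete inhibition of growth.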

As to `C=C(C)[C@H](O)C(O)CC(C)[C@@H]1CCC23CC12CCC1[C@@]2(C)CCC(OC(C)=O)C(C)(C)C2CC(OC2OC(COC(C)=O)C(O)C(O)C2O)[C@]13C` (some centres undefined), the TGI came out at 11 µM with HOP-92 NSCLC; 9.11 µM in the test with M14 melanoma; 8.94 µM with MOLT-4 leukemia; 11.2 µM in the test with NCI-H226 lung; 11.5 µM in the test with NCI-H460 lung; 6.29 µM in the test on RPMI-8226 leukemia. Also, the TGI with SF-268 CNS came to 11 µM; in the test with SF-295 CNS it was 12.5 µM; in the test with SF-539 CNS, 12.8 µM; in the test with SK-OV-3 ovarian, 14.3 µM.

On to `O=C(CCCCCCC(=O)Nc1ccc2c(c1)/C(=C/c1ccc[nH]1)C(=O)N2)NO`, for which the GI50 with HOP-92 NSCLC is 0.317 µM; in the test with M14 melanoma, 0.427 µM; in the test on MOLT-4 leukemia it was 0.289 µM; with NCI-H226 lung it was 2.28 µM; in the test on NCI-H460 lung, 2.67 µM; with RPMI-8226 leukemia it was 2.9 µM. For the same compound, the GI50 in the test on SF-268 CNS was 1.05 µM; in the test on SF-295 CNS, 1.3 µM; in the test with SF-539 CNS, 0.603 µM; with SK-OV-3 ovarian, 0.341 µM. Besides, the TGI was 2.76 µM in the test on HOP-92 NSCLC; 10 µM in the test with M14 melanoma; > 100 µM in the test on MOLT-4 leukemia; 12 µM in the test with NCI-H226 lung; > 100 µM with NCI-H460 lung; > 100 µM in the test on RPMI-8226 leukemia. In addition, the TGI with SF-268 CNS came to 13.3 µM; with SF-295 CNS, 7.51 µM; in the test on SF-539 CNS, 16 µM; in the test with SK-OV-3 ovarian, 3.85 µM.

With `CC1=Nn2c(nnc2-c2ccc(N)cc2)NC(C)(C)C1`, the TGI with HOP-92 NSCLC, with M14 melanoma, with MOLT-4 leukemia, in the test on NCI-H226 lung, in the test with NCI-H460 lung and with RPMI-8226 leukemia was > 100 µM throughout. For the same compound, the TGI in the test on SF-268 CNS, in the test with SF-295 CNS, in the test with SF-539 CNS and in the test with SK-OV-3 ovarian was > 100 µM in each case.

With `Cc1ccc(S(=O)(=O)Nc2nc3ccccc3nc2Nc2ccc3nsnc3c2)cc1`, the GI50 is 1.89 µM and 0.294 µM in the test with HOP-92 NSCLC; 4.05 µM and 4.35 µM in the test on M14 melanoma; 4.3 µM and 3.61 µM in the test on MOLT-4 leukemia; 5.38 µM and 7.55 µM with NCI-H226 lung; 3.36 µM and 2.92 µM in the test on NCI-H460 lung; 0.85 µM and 2.64 µM in the test on RPMI-8226 leukemia. Besides, the GI50 was 3.93 µM and 4.35 µM with SF-268 CNS; 2.98 µM and 2.36 µM in the test with SF-295 CNS; 4.9 µM and 5.13 µM with SF-539 CNS; 4.76 µM in the test with SK-OV-3 ovarian. Besides, the TGI in the test with HOP-92 NSCLC was 8.23 µM and 3.73 µM; in the test on M14 melanoma, > 100 µM; in the test with MOLT-4 leukemia, 34.9 µM and > 100 µM; in the test with NCI-H226 lung it was > 100 µM; in the test on NCI-H460 lung it was 70.7 µM and > 100 µM; with RPMI-8226 leukemia it was 21.2 µM and > 100 µM. Besides, the TGI with SF-268 CNS was > 100 µM; in the test with SF-295 CNS, 15.7 µM and 13.3 µM; in the test on SF-539 CNS, 61.3 µM and > 100 µM; in the test with SK-OV-3 ovarian it was > 100 µM.

In the case of `C[C@@H]1C[C@@]2(O[C@@H]2C)C(=O)O[C@@H]2CCN3CC=C(COC(=O)[C@]1(C)O)[C@H]23`, the TGI with HOP-92 NSCLC, with M14 melanoma, with MOLT-4 leukemia, with NCI-H226 lung, in the test with NCI-H460 lung and in the test with RPMI-8226 leukemia was > 100 µM throughout. Also, the TGI in the test with SF-268 CNS, in the test on SF-295 CNS, with SF-539 CNS and in the test on SK-OV-3 ovarian was > 100 µM each time.

In the case of `COC(=O)[C@@]1(O)C[C@H]2O[C@]1(C)n1c3ccccc3c3c4c(c5c6ccccc6n2c5c31)C(=O)NC4`, the GI50 in the test on HOP-92 NSCLC was 0.188 µM; in the test on M14 melanoma it was 0.0355 µM; in the test with MOLT-4 leukemia, 0.0678 µM; in the test on NCI-H226 lung, 0.32 µM; in the test on NCI-H460 lung, 0.121 µM; with RPMI-8226 leukemia it was 0.0784 µM. Besides, the GI50 with SF-268 CNS was 0.63 µM; in the test on SF-295 CNS, 0.661 µM; in the test on SF-539 CNS, 0.356 µM; in the test with SK-OV-3 ovarian, 0.0336 µM. In addition, the TGI in the test with HOP-92 NSCLC was found to be 0.88 µM; with M14 melanoma it was 1.15 µM; in the test with MOLT-4 leukemia, 0.825 µM; in the test with NCI-H226 lung it was 1.72 µM; in the test with NCI-H460 lung it was 1.38 µM; in the test with RPMI-8226 leukemia it was 1.33 µM. Also, the TGI amounted to 3.17 µM with SF-268 CNS, 2.31 µM with SF-295 CNS, 1.42 µM with SF-539 CNS and 0.926 µM in the test on SK-OV-3 ovarian.

In the case of `COc1ccc(/C=C/C(=O)c2cc3c(N)c(C(=O)Nc4ccccc4)sc3nc2C)cc1`, the GI50 in the test on HOP-92 NSCLC was 1.17 µM; in the test with M14 melanoma, 0.0907 µM; in the test with MOLT-4 leukemia, 0.318 µM; with NCI-H226 lung, 0.55 µM; in the test on NCI-H460 lung, 0.195 µM; in the test on RPMI-8226 leukemia it was 0.34 µM. For the same compound, the GI50 in the test on SF-268 CNS was 0.517 µM; in the test on SF-295 CNS, 0.232 µM; in the test on SF-539 CNS, 0.105 µM; with SK-OV-3 ovarian, 0.248 µM. Besides, the TGI was 14 µM in the test on HOP-92 NSCLC; > 50 µM in the test on M14 melanoma; > 50 µM in the test on MOLT-4 leukemia; 7.28 µM with NCI-H226 lung; > 10.8 µM with RPMI-8226 leukemia; > 50 µM in the test with SF-268 CNS. Further, the figures for the TGI in the test with SF-295 CNS, in the test on SF-539 CNS and with SK-OV-3 ovarian were > 50 µM, 0.286 µM and > 50 µM, respectively.

(Values after PubChem BioAssay (NCI).)
